System: output of cAMP produced by 5×10^-9 M hPTH (1-34) in cultured mouse osteoblast MC3T3-E1
Test: Determination of PTH antagonism: inhibition of cAMP output induced by hPTH (1-34) in cultured mouse osteoblast MC3T3-E1
Type: cell-based
Description: PTH antagonism of the PTHrP derivatives (I) of the present invention was determined on the basis of the output of cAMP, using cultured mouse osteoblast MC3T3-E1.
To a multiwell-culture plate of 12-well were inoculated 1×10^5 cells/well of the cultured cells, and the plate was incubated at 37° C. under 95% air-5% CO2 atmosphere for 3 days after addition of α-modified MEM containing 10% semi-fetal bovine serum as a medium. Then, the medium was exchanged with α-modified MEM containing 1% bovine serum albumin and the cultured cells were incubated for 6 hours. The medium was replaced by α-modified MEM containing various concentrations of the compound of the present invention, 5×10^-9 M hPTH (1-34), 1% bovine serum albumin and 1 mM isobutylmethylxanthin, and the mixture was incubated for 1 hour. The medium was separated from the cells, and the medium was used as a sample for assaying cAMP. The cells were shaken with 90% n-propyl alcohol to extract cAMP according to Yamaguchi et al., J. Biol. Chem., 262, 7711-7718 (1987) for preparing another sample.
Assay of cAMP was performed using a commercially available cAMP-radioimmunoassay kit. […] Compound numbers in the tables correspond to those in Table 2.

[1] = Table 3, 50% inhibition of cAMP output by 5×10^-9 M hPTH (1-34), ratio to control [Tyr34]-hPTH (3-34)-NH2 = 1
[2] = Table 4, 50% inhibition of cAMP output by 5×10^-9 M hPTH (1-34), ratio to control Compound No. 15 = 1

Row | Compound | IC50 Ratio [1] | IC50 Ratio [2] | other results
1 | CC[C@H](C)[C@H](NC(=O)[C@H](CC(C)C)NC(=O)[C@H](Cc1c[nH]cn1)NC(=O)[C@H](Cc1c[nH]cn1)NC(=O)[C@H](CC(C)C)NC(=O)[C@H](Cc1ccccc1)NC(=O)[C@H](Cc1ccccc1)NC(=O)[C@H](CCCNC(=N)N)NC(=O)[C@H](CCCNC(=N)N)NC(=O)[C@H](CCCNC(=N)N)NC(=O)[C@H](CC(C)C)NC(=O)[C@H](CC(=O)O)NC(=O)[C@H](CCC(N)=O)NC(=O)[C@@H](NC(=O)[C@H](CO)NC(=O)[C@H](CCCCN)NC(=O)CNC(=O)[C@H](CC(C)C)NC(=O)[C@H](C)NC(=O)[C@H](Cc1c[nH]cn1)NC(=O)[C@H](CCSC)NC(=O)[C@H](CC(C)C)NC(=O)[C@H](CCC(N)=O)NC(=O)[C@@H](NC(=O)[C@H](CCC(=O)O)NC(=O)[C@@H](N)CO)[C@@H](C)CC)[C@@H](C)CC)C(=O)N[C@@H](C)C(=O)N[C@@H](CCC(=O)O)C(=O)N[C@H](C(=O)N[C@@H](Cc1c[nH]cn1)C(=O)N[C@H](C(=O)N[C@@H](C)C(N)=O)[C@@H](C)O)[C@@H](C)CC [Compound No. 1] | 0.003 |  | concentration for 50% inhibition as fraction of that of [Tyr^34 ]-hPTH (3-34)-NH2 (relative to [Tyr34]-hPTH (3-34)-NH2): below 1/300; concentration for 50% inhibition as fraction of that of hPTHrP (3-34)-NH2 (relative to hPTHrP (3-34)-NH2): about 1/29
2 | CC[C@H](C)[C@H](NC(=O)[C@H](CC(C)C)NC(=O)[C@H](Cc1c[nH]cn1)NC(=O)[C@H](Cc1c[nH]cn1)NC(=O)[C@H](CC(C)C)NC(=O)[C@H](Cc1ccccc1)NC(=O)[C@H](Cc1ccccc1)NC(=O)[C@H](CCCNC(=N)N)NC(=O)[C@H](CCCNC(=N)N)NC(=O)[C@H](CCCNC(=N)N)NC(=O)[C@H](CC(C)C)NC(=O)[C@H](CC(=O)O)NC(=O)[C@H](CCC(N)=O)NC(=O)[C@@H](NC(=O)[C@H](CO)NC(=O)[C@H](CCCCN)NC(=O)CNC(=O)[C@H](CC(C)C)NC(=O)[C@H](CCC(N)=O)NC(=O)[C@H](Cc1c[nH]cn1)NC(=O)[C@H](CCSC)NC(=O)[C@H](CC(C)C)NC(=O)[C@H](CCC(N)=O)NC(=O)[C@@H](NC(=O)[C@H](CCC(=O)O)NC(=O)[C@@H](N)CO)[C@@H](C)CC)[C@@H](C)CC)C(=O)N[C@@H](C)C(=O)N[C@@H](CCC(=O)O)C(=O)N[C@H](C(=O)N[C@@H](Cc1c[nH]cn1)C(=O)N[C@H](C(=O)N[C@@H](C)C(N)=O)[C@@H](C)O)[C@@H](C)CC [Compound No. 2] | 0.003 |  | 
3 | CC[C@H](C)[C@H](NC(=O)[C@H](CC(C)C)NC(=O)[C@H](Cc1c[nH]cn1)NC(=O)[C@H](Cc1c[nH]cn1)NC(=O)[C@H](CC(C)C)NC(=O)[C@H](Cc1ccccc1)NC(=O)[C@H](Cc1ccccc1)NC(=O)[C@H](CCCNC(=N)N)NC(=O)[C@H](CCCNC(=N)N)NC(=O)[C@H](CCCNC(=N)N)NC(=O)[C@H](CC(C)C)NC(=O)[C@H](CC(=O)O)NC(=O)[C@H](CCC(N)=O)NC(=O)[C@@H](NC(=O)[C@H](CO)NC(=O)[C@H](CCCCN)NC(=O)CNC(=O)[C@H](CCCCN)NC(=O)[C@H](CC(=O)O)NC(=O)[C@H](Cc1c[nH]cn1)NC(=O)[C@H](CCSC)NC(=O)[C@H](CC(C)C)NC(=O)[C@H](CCC(N)=O)NC(=O)[C@@H](N)Cc1ccccc1)[C@@H](C)CC)C(=O)N[C@@H](C)C(=O)N[C@@H](CCC(=O)O)C(=O)N[C@H](C(=O)N[C@@H](Cc1c[nH]cn1)C(=O)N[C@H](C(=O)N[C@@H](C)C(N)=O)[C@@H](C)O)[C@@H](C)CC [Compound No. 8] | 0.026 |  | 
4 | CC[C@H](C)[C@H](NC(=O)[C@H](CC(C)C)NC(=O)[C@H](Cc1c[nH]cn1)NC(=O)[C@H](Cc1c[nH]cn1)NC(=O)[C@H](CC(C)C)NC(=O)[C@H](Cc1ccccc1)NC(=O)[C@H](Cc1ccccc1)NC(=O)[C@H](CCCNC(=N)N)NC(=O)[C@H](CCCNC(=N)N)NC(=O)[C@H](CCCNC(=N)N)NC(=O)[C@H](CC(C)C)NC(=O)[C@H](CC(=O)O)NC(=O)[C@H](CCC(N)=O)NC(=O)[C@@H](NC(=O)[C@H](CO)NC(=O)[C@H](CCCCN)NC(=O)CNC(=O)[C@H](CCCCN)NC(=O)[C@H](CC(=O)O)NC(=O)[C@H](Cc1c[nH]cn1)NC(=O)[C@H](CCSC)NC(=O)[C@H](CC(C)C)NC(=O)[C@H](CCC(N)=O)NC(=O)[C@@H](N)CC(C)C)[C@@H](C)CC)C(=O)N[C@@H](C)C(=O)N[C@@H](CCC(=O)O)C(=O)N[C@H](C(=O)N[C@@H](Cc1c[nH]cn1)C(=O)N[C@H](C(=O)N[C@@H](C)C(N)=O)[C@@H](C)O)[C@@H](C)CC [Compound No. 9] |  | 1.02 | 
5 | CCCCCCCCCCCCCC(=O)N[C@@H](CCC(N)=O)C(=O)N[C@@H](CC(C)C)C(=O)N[C@@H](CCSC)C(=O)N[C@@H](Cc1c[nH]cn1)C(=O)N[C@@H](CC(=O)O)C(=O)N[C@@H](CCCCN)C(=O)NCC(=O)N[C@@H](CCCCN)C(=O)N[C@@H](CO)C(=O)N[C@H](C(=O)N[C@@H](CCC(N)=O)C(=O)N[C@@H](CC(=O)O)C(=O)N[C@@H](CC(C)C)C(=O)N[C@@H](CCCNC(=N)N)C(=O)N[C@@H](CCCNC(=N)N)C(=O)N[C@@H](CCCNC(=N)N)C(=O)N[C@@H](Cc1ccccc1)C(=O)N[C@@H](Cc1ccccc1)C(=O)N[C@@H](CC(C)C)C(=O)N[C@@H](Cc1c[nH]cn1)C(=O)N[C@@H](Cc1c[nH]cn1)C(=O)N[C@@H](CC(C)C)C(=O)N[C@H](C(=O)N[C@@H](C)C(=O)N[C@@H](CCC(=O)O)C(=O)N[C@H](C(=O)N[C@@H](Cc1c[nH]cn1)C(=O)N[C@H](C(=O)N[C@@H](C)C(N)=O)[C@@H](C)O)[C@@H](C)CC)[C@@H](C)CC)[C@@H](C)CC [Compound No. 10] |  | 2.24 | 
6 | CCCC[C@H](NC(=O)[C@H](CCC(N)=O)NC(=O)[C@@H](N)[C@@H](C)CC)C(=O)N[C@@H](CCSC)C(=O)N[C@@H](Cc1c[nH]cn1)C(=O)N[C@@H](CC(=O)O)C(=O)N[C@@H](CCCCN)C(=O)NCC(=O)N[C@@H](CCCCN)C(=O)N[C@@H](CO)C(=O)N[C@H](C(=O)N[C@@H](CCC(N)=O)C(=O)N[C@@H](CC(=O)O)C(=O)N[C@@H](CC(C)C)C(=O)N[C@@H](CCCNC(=N)N)C(=O)N[C@@H](CCCNC(=N)N)C(=O)N[C@@H](CCCNC(=N)N)C(=O)N[C@@H](Cc1ccccc1)C(=O)N[C@@H](Cc1ccccc1)C(=O)N[C@@H](CC(C)C)C(=O)N[C@@H](Cc1c[nH]cn1)C(=O)N[C@@H](Cc1c[nH]cn1)C(=O)N[C@@H](CC(C)C)C(=O)N[C@H](C(=O)N[C@@H](C)C(=O)N[C@@H](CCC(=O)O)C(=O)N[C@H](C(=O)N[C@@H](Cc1c[nH]cn1)C(=O)N[C@H](C(=O)N[C@@H](C)C(N)=O)[C@@H](C)O)[C@@H](C)CC)[C@@H](C)CC)[C@@H](C)CC [Compound No. 14] |  | 0.922 | 
7 | CC[C@H](C)[C@H](N)C(=O)N[C@@H](CCC(N)=O)C(=O)N[C@@H](CC(C)C)C(=O)N[C@@H](CCSC)C(=O)N[C@@H](Cc1c[nH]cn1)C(=O)N[C@@H](C)C(=O)N[C@@H](CCCCN)C(=O)NCC(=O)N[C@@H](CCCCN)C(=O)N[C@@H](CO)C(=O)N[C@H](C(=O)N[C@@H](CCC(N)=O)C(=O)N[C@@H](CC(=O)O)C(=O)N[C@@H](CC(C)C)C(=O)N[C@@H](CCCNC(=N)N)C(=O)N[C@@H](CCCNC(=N)N)C(=O)N[C@@H](CCCNC(=N)N)C(=O)N[C@@H](Cc1ccccc1)C(=O)N[C@@H](Cc1ccccc1)C(=O)N[C@@H](CC(C)C)C(=O)N[C@@H](Cc1c[nH]cn1)C(=O)N[C@@H](Cc1c[nH]cn1)C(=O)N[C@@H](CC(C)C)C(=O)N[C@H](C(=O)N[C@@H](C)C(=O)N[C@@H](CCC(=O)O)C(=O)N[C@H](C(=O)N[C@@H](Cc1c[nH]cn1)C(=O)N[C@H](C(=O)N[C@@H](C)C(N)=O)[C@@H](C)O)[C@@H](C)CC)[C@@H](C)CC)[C@@H](C)CC [Compound No. 17] |  | 1.17 | 
8 | CC[C@H](C)[C@H](N)C(=O)N[C@@H](CCC(N)=O)C(=O)N[C@@H](CC(C)C)C(=O)N[C@@H](CCSC)C(=O)N[C@@H](Cc1c[nH]cn1)C(=O)N[C@@H](C)C(=O)N[C@@H](CC(C)C)C(=O)NCC(=O)N[C@@H](CCCCN)C(=O)N[C@@H](CO)C(=O)N[C@H](C(=O)N[C@@H](CCC(N)=O)C(=O)N[C@@H](CC(=O)O)C(=O)N[C@@H](CC(C)C)C(=O)N[C@@H](CCCNC(=N)N)C(=O)N[C@@H](CCCNC(=N)N)C(=O)N[C@@H](CCCNC(=N)N)C(=O)N[C@@H](Cc1ccccc1)C(=O)N[C@@H](Cc1ccccc1)C(=O)N[C@@H](CC(C)C)C(=O)N[C@@H](Cc1c[nH]cn1)C(=O)N[C@@H](Cc1c[nH]cn1)C(=O)N[C@@H](CC(C)C)C(=O)N[C@H](C(=O)N[C@@H](C)C(=O)N[C@@H](CCC(=O)O)C(=O)N[C@H](C(=O)N[C@@H](Cc1c[nH]cn1)C(=O)N[C@H](C(=O)N[C@@H](C)C(N)=O)[C@@H](C)O)[C@@H](C)CC)[C@@H](C)CC)[C@@H](C)CC [Compound No. 18] |  | 1.97 | 
9 | CC[C@H](C)[C@H](NC(C)=O)C(=O)N[C@@H](CCC(N)=O)C(=O)N[C@@H](CC(C)C)C(=O)N[C@@H](CCSC)C(=O)N[C@@H](Cc1c[nH]cn1)C(=O)N[C@@H](CC(=O)O)C(=O)N[C@@H](CCCCN)C(=O)NCC(=O)N[C@@H](CCCCN)C(=O)N[C@@H](CO)C(=O)N[C@H](C(=O)N[C@@H](CCC(N)=O)C(=O)N[C@@H](CC(=O)O)C(=O)N[C@@H](CC(C)C)C(=O)N[C@@H](CCCNC(=N)N)C(=O)N[C@@H](CCCNC(=N)N)C(=O)N[C@@H](CCCNC(=N)N)C(=O)N[C@@H](Cc1ccccc1)C(=O)N[C@@H](Cc1ccccc1)C(=O)N[C@@H](CC(C)C)C(=O)N[C@@H](Cc1c[nH]cn1)C(=O)N[C@@H](Cc1c[nH]cn1)C(=O)N[C@@H](CC(C)C)C(=O)N[C@H](C(=O)N[C@@H](C)C(=O)N[C@@H](CCC(=O)O)C(=O)N[C@H](C(=O)N[C@@H](Cc1c[nH]cn1)C(=O)N[C@H](C(=O)N[C@@H](C)C(N)=O)[C@@H](C)O)[C@@H](C)CC)[C@@H](C)CC)[C@@H](C)CC [Compound No. 21] |  | 0.934 | 

From patent publication US5446130A, “Parathyroid hormone antagonists” (Mitsubishi Kasei Corporation, priority 1990, dated 1995)
